Test results from patent US20250197373A1, “SMALL MOLECULE COMPOUND OR SALT THEREOF OR SOLVATE OF THEM, GUANINE NUCLEOTIDE-BINDING PROTEIN G(Q) SUBUNIT ALPHA (GNAQ) INHIBITOR CONTAINING THE SAME AND METHOD FOR TREATING AND/OR PREVENTING CANCER” (INDUSTRIAL TECHNOLOGY RESEARCH INSTITUTE, priority 2023, published 2025).

Biological target: T1, GNAQ (T96S) (Homo sapiens, UniProt P50148, T96S)
T1 construct: BPS Bioscience (parental reporter cell line) 60406
T1 sequence (P50148 1-359 T96S): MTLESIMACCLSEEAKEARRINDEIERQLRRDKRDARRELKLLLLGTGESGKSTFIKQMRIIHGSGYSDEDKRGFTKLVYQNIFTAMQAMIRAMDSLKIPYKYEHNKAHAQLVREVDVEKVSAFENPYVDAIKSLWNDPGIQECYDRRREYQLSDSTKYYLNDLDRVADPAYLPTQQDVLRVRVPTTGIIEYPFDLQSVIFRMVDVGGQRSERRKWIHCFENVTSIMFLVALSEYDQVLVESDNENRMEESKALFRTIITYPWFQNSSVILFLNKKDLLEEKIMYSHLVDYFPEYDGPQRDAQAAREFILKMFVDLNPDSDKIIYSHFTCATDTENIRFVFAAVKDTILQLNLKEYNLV
Assay: SRE luciferase reporter gene-HEK293 cell line, GNAQ (T96S)
Type: cell-based
Conditions: Cell type T96S, 20% FBS induction, read-out: GNAQ inhibitory rate; for inhibition at 0.9 µM: analytical concentration 900 nM; for inhibition at 2.7 µM: analytical concentration 2,700 nM; for inhibition at 8.1 µM: analytical concentration 8,100 nM
Description: 7.5×10^4 SRE-293-GNAQ (WT) or SRE-293-GNAQ (T96S) cell lines were seeded in a 24-well plate and cultured in a carbon dioxide incubator at 37° C. SRE-293-GNAQ (WT) or SRE-293-GNAQ (T96S) cell lines was derived from additionally transfecting SRE Reporter—HEK293 Recombinant Cell Line (ERK Pathway) (Catalog number: 60406; BPS Bioscience) cells with an expression vector separately expressing GNAQ (WT) or GNAQ (T96S), and screening a stable expression cell line by the antibiotic, geneticin (type number 10131035; Thermo Fisher Scientific). GNAQ (WT) or GNAQ (T96) expression vector was derived from gene synthesis and point mutation modification of GenScript company's customized services.
After 48 hours of culture, the culture medium in the 24-well plate was replaced with minimal essential medium (MEM) containing only 0.1% fetal bovine serum (FBS) and the cells were cultured overnight.
After overnight culture, the compound to be tested was added to the cells and reacted for 2 hours, and the medium at this point was still MEM medium containing only 0.1% fetal bovine serum. After reacting with the compound to be tested for 2 hours, fetal bovine serum at a final concentration of 20% was added to the cells and reacted for at least 4 hours. After the reaction, the supernatant was removed. Next, 100 μL of cell lysis reagent CelLytic M Cell Lysis Reagent (Catalog number: C2978; Sigma) was added to the cells and aspirated repeatedly several times to form a cell lysate solution with the cells. The cell lysate solution was collected in a microcentrifuge tube and centrifuged at a high speed of 14,000 rpm for 5 minutes. After that, 30 μL of supernatant was taken out and placed in a 96-well white plate for luminescence analysis, and 30 μL of firefly luminescence analysis reagent (Catalog No. E1501; Promega) diluted 3-fold was added and mixed well, and then luminescence detection was performed with a plate enzyme immunoassay analyzer (ELISA reader) to evaluate the effect of the compound to be tested on MAPK signaling induced by GNAQ through the expression of the firefly luciferase reporter gene.
In order to confirm the effect of the compounds on MAPK signaling induced by GNAQ, the screened SRE-HEK293 cells capable of expressing exogenous GNAQ (WT) and GNAQ (T96S) genes were subjected to overnight serum starvation, and 2 hours before induction with 20% fetal bovine serum, the compound to be tested (one of Compound 1 to Compound 15 prepared above) was added to the cells, and after serum induction, the expression of the firefly luciferase reporter gene was measured. Through the above steps, the inhibition of the compound to be tested on GNAQ expression could be evaluated through the expression of the reporter gene in cells.

| SMILES | inhibition at 0.9 µM | inhibition at 2.7 µM | inhibition at 8.1 µM |
| --- | --- | --- | --- |
| N#Cc1cccc(-c2nccc(-c3cccc(NC(=O)Nc4cc(Cl)nc(Cl)c4)c3)n2)c1 [Compound 3] | < 10% | 40 to 70% | > 70% |
| O=C(Nc1cccc(-c2ccnc(-c3ccc(F)c(F)c3)n2)c1)Nc1cc(Cl)nc(Cl)c1 [Compound 4] | < 10% | 10 to 39% | 40 to 70% |
| O=C(Nc1ccc(-c2ccnc(-c3ccncc3)n2)cc1)Nc1ccc(Cl)c(C(F)(F)F)c1 [Compound 6] | 10 to 39% | 10 to 39% | 40 to 70% |
| O=C(Nc1ccc(-c2cccc(-c3cccc(C(F)(F)F)c3)n2)cc1)Nc1cc(Cl)nc(Cl)c1 [Compound 9] | < 10% | 10 to 39% | 40 to 70% |
| FC(F)(F)c1cccc(-c2cccc(-c3ccc(NC(=S)Nc4cc(Cl)nc(Cl)c4)cc3)n2)c1 [Compound 10] | < 10% | 40 to 70% | > 70% |
| O=C(Nc1cccc(-c2cccc(-c3ccncc3)n2)c1)Nc1cc(Cl)nc(Cl)c1 [Compound 13] | 10 to 39% | 40 to 70% | > 70% |

Continued, values first:

| inhibition at 0.9 µM | inhibition at 2.7 µM | inhibition at 8.1 µM | SMILES |
| --- | --- | --- | --- |
| < 10% | 10 to 39% | > 70% | O=C(Nc1cccc(-c2ccnc(-c3ccnc(Cl)c3)n2)c1)Nc1cc(Cl)nc(Cl)c1 [Compound 1] |
| < 10% | 10 to 39% | > 70% | O=C(Nc1cccc(-c2ccnc(-c3cccc(C(F)(F)F)c3)n2)c1)Nc1cc(Cl)nc(Cl)c1 [Compound 2] |
| < 10% | < 10% | < 10% | O=C(Nc1cccc(-c2ccnc(-c3cccc(C(F)(F)F)c3)n2)c1)c1cc(Cl)nc(Cl)c1 [Compound 5] |
| < 10% | 10 to 39% | 10 to 39% | O=C(Nc1ccc(-c2ccnc(-c3cccc(C(F)(F)F)c3)n2)cc1)Nc1cc(Cl)nc(Cl)c1 [Compound 7] |
| < 10% | < 10% | 10 to 39% | O=C(Nc1ccc(-c2ccnc(-c3cccc(C(F)(F)F)c3)n2)cc1)Nc1ccc(Cl)c(C(F)(F)F)c1 [Compound 8] |
| 10 to 39% | 40 to 70% | > 70% | N#Cc1cccc(-c2cccc(-c3ccc(NC(=S)Nc4cc(Cl)nc(Cl)c4)cc3)n2)c1 [Compound 11] |
| 10 to 39% | 40 to 70% | 40 to 70% | O=C(Nc1ccc(-c2cccc(-c3ccncc3)n2)cc1)Nc1ccc(Cl)c(C(F)(F)F)c1 [Compound 12] |
| 10 to 39% | 10 to 39% | > 70% | O=C(Nc1cccc(-c2cc(-c3cccc(C(F)(F)F)c3)ncn2)c1)Nc1cc(Cl)nc(Cl)c1 [Compound 14] |
| < 10% | 10 to 39% | 40 to 70% | O=C(Nc1ccc(-c2nc(-c3ccccc3)ncc2Cl)cc1)Nc1cc(Cl)nc(Cl)c1 [Compound 15] |
